Source: PMC4472245, “Alternative divalent cations (Zn^2+, Co^2+, and Mn^2+) are not mutagenic at conditions optimal for HIV-1 reverse transcriptase activity” (BMC Biochemistry, 2015)
Read-outs that look alike come from different tables or passages of the source.

Key:
[1] = target: T1, HIV RT (HIV-1 reverse transcriptase, p66/p51) (HIV-1 M:B_HXB2R, UniProt P04585); conditions: read-out: ^d K m / μM, 0.4 mM free Zn2+ instead of Mg2+, DNA primer-template, pH 7.7, 37 °C
T1 construct: gene gag-pol
Description: steady-state running-start incorporation, gel on HIV RT (HIV-1 reverse transcriptase, p66/p51)

[2] = target: T1, HIV RT (HIV-1 reverse transcriptase, p66/p51); conditions: read-out: ^d K m / μM; 0.4 mM free Zn2+ instead of Mg2+; DNA primer-template with matched C.G 3' end; next correct nucleotide; pH 7.7, 37 °C, 80 mM KCl

**Q.** Which Km ([1]; misinsertion opposite template C (C.T mismatch), 55 μM dATP) does the source give for `Cc1cn([C@H]2C[C@H](O)[C@@H](COP(=O)(O)OP(=O)(O)OP(=O)(O)O)O2)c(=O)[nH]c1=O` [dTTP] here?
**A.** 244 ± 102 µM

**Q.** With `Nc1nc2c(ncn2[C@H]2C[C@H](O)[C@@H](COP(=O)(O)OP(=O)(O)OP(=O)(O)O)O2)c(=O)[nH]1` [dGTP] as the molecule, how does the Km ([1]; correct insertion opposite template C (C.G), 55 μM dATP) read?
**A.** 0.19 ± 0.09 µM

**Q.** With `Nc1ncnc2c1ncn2[C@H]1C[C@H](O)[C@@H](COP(=O)(O)OP(=O)(O)OP(=O)(O)O)O1` [dATP] as the molecule, how does the Km ([1]; misinsertion opposite template C (C.A mismatch)) read?
**A.** 518 ± 43 µM

**Q.** How did the Km [2] turn out when `Nc1ccn([C@H]2C[C@H](O)[C@@H](COP(=O)(O)OP(=O)(O)OP(=O)(O)O)O2)c(=O)n1` [dCTP] was run?
**A.** 0.04 ± 0.01 µM
